Measured values from patent US12084472B2 (Ardelyx, Inc., priority 2015, dated 2024).

The molecules below were run against T1, human TGR5 (Homo sapiens, UniProt Q8TDU6) (assay: Cell-based TGR5 assay (cAMP generation, HTRF)). Details: HEK293 cells stably transfected with human TGR5; cAMP by HTRF; 30 minutes at 37° C.; read-out: pEC50 Human TGR5 (converted).
T1 construct: expressed in transfected cells; host or cells: HEK293
T1 sequence (Q8TDU6 1-330): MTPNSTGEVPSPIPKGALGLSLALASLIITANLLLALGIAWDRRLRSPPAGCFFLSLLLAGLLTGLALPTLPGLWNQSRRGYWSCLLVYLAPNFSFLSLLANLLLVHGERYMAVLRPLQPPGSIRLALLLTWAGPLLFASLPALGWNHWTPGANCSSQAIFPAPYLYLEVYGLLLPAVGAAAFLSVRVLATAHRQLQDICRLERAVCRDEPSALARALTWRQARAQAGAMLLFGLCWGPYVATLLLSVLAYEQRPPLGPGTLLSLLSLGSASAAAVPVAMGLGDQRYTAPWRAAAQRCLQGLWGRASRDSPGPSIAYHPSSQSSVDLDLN
In short: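 Read-out was HTRF detection of cAMP, converted to concentration via a standard curve and fitted (3-parameter logistic) for pEC50 and maximal response. Agonist stimulation used HEK293 cells stably transfected with human TGR5, incubated 30 min at 37° C in IBMX-containing buffer at 0.05 nM to 10 μM compound.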

| SMILES | EC50 [µM] |
| --- | --- |
| CCNC(=O)CCN(C[C@H](O)[C@@H](O)[C@H](O)[C@H](O)CO)C(=O)CCCC(C)c1ccc(Cl)c(CNC2(c3cnccc3-c3ccccc3OC3CC3)CC2)c1 (stereo partly drawn) [Compound I-344, 5-{4-chloro-3-[({1-[4-(2-cyclopropoxyphenyl)pyridin-3-yl]cyclopropyl}amino)methyl]phenyl}-N-[2-(ethylcarbamoyl)ethyl]-N-[(2S,3R,4R,5R)-2,3,4,5,6-pentahydroxyhexyl]hexanamide] | 0.126 to 1 |
| CN(CCOCCNC(=O)NC[C@H](O)[C@@H](O)[C@H](O)[C@H](O)CO)S(=O)(=O)c1ccc(Cl)c(COC2(c3cnccc3-c3ccccc3OC3CC3)CC2)c1 (stereo in doubt) [Compound I-404, 1-(2-{2-[N-methyl4-chloro-3-({1-[4-(2-cyclopropoxyphenyl)pyridin-3-yl]cyclopropoxy}methyl)benzenesulfonamido]ethoxy}ethyl)-3-[(2S,3R,4R,5R)-2,3,4,5,6-pentahydroxyhexyl]urea] | < 0.1 |
| CC(=O)NCCCCN(C)S(=O)(=O)c1ccc(Cl)c(COC2(c3cnccc3-c3ccccc3OC3CC3)CC2)c1 [Compound I-766, N-(4-((4-chloro-3-((1-(4-(2-cyclopropoxyphenyl)pyridin-3-yl)cyclopropoxy)methyl)-N-methylphenyl)sulfonamido)butyl)acetamide] | < 0.1 |
| CN(C[C@H](O)[C@@H](O)[C@H](O)[C@H](O)CO)C(=O)CCCCc1ccc(Cl)c(CNC2(c3cnccc3-c3ccccc3OC3CC3)CC2)c1 (stereo in doubt) [Compound I-234, 5-{4-chloro-3-[({1-[4-(2-cyclopropoxyphenyl)pyridin-3-yl]cyclopropyl}amino)methyl]phenyl}-N-methyl-N-[(2S,3R,4R,5R)-2,3,4,5,6-pentahydroxyhexyl]pentanamide] | < 0.1 |
| CN(C[C@H](O)[C@@H](O)[C@H](O)[C@H](O)CO)C(=O)CCN(CCC(=O)N(C)C[C@H](O)[C@@H](O)[C@H](O)[C@H](O)CO)C(=O)CCCCc1cc(Cl)c(COC2(c3cnccc3-c3ccccc3OC3CC3)CC2)cc1Cl [Compound I-169, 5-[2,5-dichloro-4-({1-[4-(2-cyclopropoxyphenyl)pyridin-3-yl]cyclopropoxy}methyl)phenyl]-N,N-bis(2-{methyl[(2S,3R,4R,5R)-2,3,4,5,6-pentahydroxyhexyl]carbamoyl}ethyl)pentanamide] | 0.126 to 1 |
| CS(=O)(=O)NCCCN(CCCSc1ccc(Cl)c(COC2(c3cnccc3-c3ccccc3OC3CC3)CC2)c1)C(=O)[C@@H](O)[C@@H](O)[C@H](O)[C@@H](O)CO [Compound I-592, (2S,3S,4R,5S)-N-(3-{[4-chloro-3-({1-[4-(2-cyclopropoxyphenyl)pyridin-3-yl]cyclopropoxy}methyl)phenyl]sulfanyl}propyl)-2,3,4,5,6-pentahydroxy-N-(3-methanesulfonamidopropyl) hexanamide] | 0.126 to 1 |
| O=C(NCCN1CCN(S(=O)(=O)c2ccc(Cl)c(COC3(c4cnccc4-c4ccccc4OC4CC4)CC3)c2)CC1)NC[C@H](O)[C@@H](O)[C@H](O)[C@H](O)CO [Compound I-425, 1-(2-{4-[4-chloro-3-({1-[4-(2-cyclopropoxyphenyl)pyridin-3-yl]cyclopropoxy}methyl)benzenesulfonyl]piperazin-1-yl}ethyl)-3-[(2S,3R,4R,5R)-2,3,4,5,6-pentahydroxyhexyl]urea] | 0.126 to 1 |
| O=C(NCC1CCN(S(=O)(=O)c2ccc(Cl)c(COC3(c4cnccc4-c4ccccc4OC4CC4)CC3)c2)C1)NC[C@H](O)[C@@H](O)[C@H](O)[C@H](O)CO (stereo partly drawn) [Compound I-420, 1-({1-[4-chloro-3-({1-[4-(2-cyclopropoxyphenyl)pyridin-3-yl]cyclopropoxy}methyl)benzenesulfonyl]pyrrolidin-3-yl}methyl)-3-[(2S,3R,4R,5R)-2,3,4,5,6-pentahydroxyhexyl]urea] | < 0.1 |
| O=C(NCCOCC[S+]([O-])c1ccc(Cl)c(COC2(c3cnccc3-c3ccccc3OC3CC3)CC2)c1)N[C@@H](CO)[C@@H](O)[C@H](O)[C@H](O)CO (stereo partly drawn) [Compound I-644, 1-(2-{2-[4-chloro-3-({1-[4-(2-cyclopropoxyphenyl)pyridin-3-yl]cyclopropoxy}methyl)benzenesulfinyl]ethoxy}ethyl)-3-[(2S,3R,4S,5R)-1,3,4,5,6-pentahydroxyhexan-2-yl]urea] | < 0.1 |
| CC(CCCC(=O)NCCN1CCN(C(=O)NC[C@H](O)[C@@H](O)[C@H](O)[C@H](O)CO)CC1)c1ccc(Cl)c(CN(C(=O)NC[C@H](O)[C@@H](O)[C@H](O)[C@H](O)CO)C2(c3cnccc3-c3ccccc3OC3CC3)CC2)c1 (stereo partly drawn) [Compound I-372, 4-[2-(5-{4-chloro-3-[(1-{l-[4-(2-cyclopropoxyphenyl)pyridin-3-yl]cyclopropyl}{[(2S,3R,4R,5R)-2,3,4,5,6-pentahydroxyhexyl]carbamoyl}amino)methyl]phenyl}hexanamido)ethyl]-N-[(2S,3R,4R,5R)-2,3,4,5,6-pentahydroxyhexyl]piperazine-1-carboxamide] | 1.26 to 10 |
| CC(CCCCNC(=O)[C@@H](O)[C@@H](O)[C@H](O)[C@@H](O)CO)c1ccc(Cl)c(CNC2(c3cnccc3-c3ccccc3OC3CC3)CC2)c1 (stereo partly drawn) [Compound I-279, (2S,3S,4R,5S)-N-(5-{4-chloro-3-[({1-[4-(2-cyclopropoxyphenyl)pyridin-3-yl]cyclopropyl}amino)methyl]phenyl}hexyl)-2,3,4,5,6-pentahydroxyhexanamide] | < 0.1 |
| CC(C)N(CCCCNC(=O)N[C@@H](CO)[C@@H](O)[C@H](O)[C@H](O)CO)S(=O)(=O)c1ccc(Cl)c(CNC2(c3cnccc3-c3ccccc3OC3CC3)CC2)c1 [Compound I-744, 4-chloro-3-(((1-(4-(2-cyclopropoxyphenyl)pyridin-3-yl)cyclopropyl)amino)methyl)-N-isopropyl-N-(4-(3-((2S,3R,4S,5R)-1,3,4,5,6-pentahydroxyhexan-2-yl)ureido)butyl)benzenesulfonamide] | < 0.1 |
| CSc1ccc(C)c(CNC2(c3cnccc3-c3ccccc3OC3CC3)CC2)n1 [Compound I-25, 1-[4-(2-cyclopropoxyphenyl)pyridin-3-yl]-N-{[3-methyl-6-(methylsulfanyl)pyridin-2-yl]methyl}cyclopropan-1-amine] | < 0.1 |
| CCNC(=O)CCN(C[C@H](O)[C@@H](O)[C@H](O)[C@H](O)CO)C(=O)CCCSc1ccc(Cl)c(COC2(c3cnccc3-c3ccccc3OC3CC3)CC2)c1 [Compound I-672, 4-{[4-chloro-3-({1-[4-(2-cyclopropoxyphenyl)pyridin-3-yl]cyclopropoxy}methyl)phenyl]sulfanyl}-N-[2-(ethylcarbamoyl)ethyl]-N-[(2S,3R,4R,5R)-2,3,4,5,6-pentahydroxyhexyl]butanamide] | 0.126 to 1 |
| O=C(CCCCCNS(=O)(=O)c1ccc(Cl)c(COC2(c3cnccc3-c3ccccc3OC3CC3)CC2)c1)NC[C@H](O)[C@@H](O)[C@H](O)[C@H](O)CO [Compound I-431, 6-[4-chloro-3-({1-[4-(2-cyclopropoxyphenyl)pyridin-3-yl]cyclopropoxy}methyl)benzenesulfonamido]-N-[(2S,3R,4R,5R)-2,3,4,5,6-pentahydroxyhexyl]hexanamide] | < 0.1 |
| [2H]C([2H])(NC(=O)N[C@@H](CO)[C@@H](O)[C@H](O)[C@H](O)CO)C([2H])([2H])C([2H])([2H])C([2H])([2H])N(C)S(=O)(=O)c1ccc(Cl)c(COC2(c3cnccc3-c3ccccc3OC3CC3)CC2)c1 [Compound I-735, 1-(4-[N-methyl[4-chloro-3-([1-[4-(2-cyclopropoxyphenyl)pyridin-3-yl]cyclopropoxy]methyl)benzene]sulfonamido](d8)butyl)-3-[(2S,3R,4S,5R)-1,3,4,5,6-pentahydroxyhexan-2-yl]urea] | < 0.1 |
| O=C([C@@H](O)[C@@H](O)[C@H](O)[C@@H](O)CO)N(CCO)CCCCc1cc(Cl)c(COC2(c3cnccc3-c3ccccc3OC3CC3)CC2)cc1Cl [Compound I-213, (2S,3S,4R,5S)-N-{4-[2,5-dichloro-4-({1-[4-(2-cyclopropoxyphenyl)pyridin-3-yl]cyclopropoxy}methyl)phenyl]butyl}-2,3,4,5,6-pentahydroxy-N-(2-hydroxyethyl)hexanamide] | < 0.1 |
| CC(=O)NCCCN(CCCCSc1ccc(Cl)c(CNC2(c3cnccc3-c3ccccc3OC3CC3)CC2)c1)C(=O)[C@@H](O)[C@@H](O)[C@H](O)[C@@H](O)CO [Compound I-573, (2S,3S,4R,5S)-N-[4-({4-chloro-3-[({1-[4-(2-cyclopropoxyphenyl)pyridin-3-yl]cyclopropyl}amino)methyl]phenyl}sulfanyl)butyl]-N-(3-acetamidopropyl)-2,3,4,5,6-pentahydroxyhexanamide] | 0.126 to 1 |
| CN(CCCCNC(=O)NC[C@H](O)[C@@H](O)[C@H](O)[C@H](O)CO)S(=O)(=O)c1cc(COC2(c3cnccc3-c3ccccc3OC3CC3)CC2)c(Cl)cc1Cl [Compound I-467, 1-{4-[N-methyl2,4-dichloro-5-({1-[4-(2-cyclopropoxyphenyl)pyridin-3-yl]cyclopropoxy}methyl)benzenesulfonamido]butyl}-3-[(2S,3R,4R,5R)-2,3,4,5,6-pentahydroxyhexyl]urea] | < 0.1 |
| CN(CCCCNC(=O)NC[C@H](O)[C@@H](O)[C@H](O)[C@H](O)CO)S(=O)(=O)c1ccc(Cl)c(CNC2(c3cnccc3-c3ccccc3OC3CC3)CC2)c1 [Compound I-471, 1-(4-{N-methyl4-chloro-3-[({1-[4-(2-cyclopropoxyphenyl)pyridin-3-yl]cyclopropyl}amino)methyl]benzenesulfonamido}butyl)-3-[(2S,3R,4R,5R)-2,3,4,5,6-pentahydroxyhexyl]urea] | < 0.1 |
